Assay results taken from PubChem BioAssay (NCI).
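48-hour exposure; five concentrations; linearly interpolated endpoints. GI50 is the concentration that inhibits growth by half. TGI is the concentration that stops growth completely.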

Assays:
Test in all cases: DTP human tumour cell line panel, 48 h
SK-MEL-5 melanoma = test system: SK-MEL-5 melanoma
MALME-3M melanoma = test system: MALME-3M melanoma
A498 renal = test system: A498 renal
HOP-92 NSCLC = test system: HOP-92 NSCLC
UO-31 renal = test system: UO-31 renal
IGROV1 ovarian = test system: IGROV1 ovarian
HCT-116 colon = test system: HCT-116 colon
CCRF-CEM leukemia = test system: CCRF-CEM leukemia
OVCAR-8 ovarian = test system: OVCAR-8 ovarian
RPMI-8226 leukemia = test system: RPMI-8226 leukemia

Row | SMILES | TGI (SK-MEL-5 melanoma) | TGI (MALME-3M melanoma) | TGI (A498 renal) | TGI (HOP-92 NSCLC) | TGI (UO-31 renal) | TGI (IGROV1 ovarian) | TGI (HCT-116 colon) | TGI (CCRF-CEM leukemia) | TGI (OVCAR-8 ovarian) | TGI (RPMI-8226 leukemia) | GI50 (SK-MEL-5 melanoma) | GI50 (MALME-3M melanoma) | GI50 (A498 renal) | GI50 (HOP-92 NSCLC) | GI50 (UO-31 renal) | GI50 (IGROV1 ovarian) | GI50 (CCRF-CEM leukemia) | GI50 (RPMI-8226 leukemia) | GI50 (OVCAR-8 ovarian)
1 | Nc1ccc(N=Nc2ccccc2)cc1 | > 100 µM | > 100 µM | > 100 µM | > 100 µM | > 100 µM | > 100 µM | > 100 µM | > 100 µM | > 100 µM |  |  |  |  |  |  |  |  |  | 
2 | COc1ccc(O)cc1 | > 100 µM | > 100 µM | > 100 µM | > 100 µM | > 100 µM | > 100 µM | > 100 µM | > 100 µM | > 100 µM | > 100 µM |  |  |  |  |  |  |  |  | 
3 | NC1=NS(=O)(=O)Nc2nc(-c3ccc(Cl)cc3)c(-c3ccc(Cl)cc3)nc21 | > 100 µM | > 100 µM |  | > 100 µM | > 100 µM | > 100 µM | > 100 µM | > 100 µM | > 100 µM |  |  |  |  |  |  |  |  |  | 
4 | COc1ccc(/C(Cl)=C(\C=O)c2ccc(F)cc2)cc1OC | 37.7 µM | 72 µM | 54.8 µM | 29.3 µM | 61.1 µM | > 100 µM | 31 µM | 48.6 µM | > 100 µM | 46.3 µM |  |  |  |  |  |  |  |  | 
5 | NC1=NS(=O)(=O)Nc2nc(-c3ccc([N+](=O)[O-])o3)[nH]c21 | 33.4 µM | 30.6 µM | > 100 µM | 27.1 µM | 36.5 µM | 31.5 µM | 17.7 µM | 16.9 µM | 89.3 µM | 46.7 µM |  |  |  |  |  |  |  |  | 
6 | Nc1ccc2[nH]c3c(-c4ccccc4)nccc3c2c1 | > 31.6 µM | > 100 µM | > 100 µM | > 100 µM | > 100 µM | > 100 µM | > 100 µM | > 100 µM | > 100 µM | > 100 µM |  |  |  |  |  |  |  |  | 
7 | O=C(NC(Cc1ccc(I)cc1)C(=O)O)c1ccc(Br)cc1 (stereo unspecified) | > 100 µM | > 100 µM | > 100 µM | > 100 µM | > 100 µM | > 100 µM | > 100 µM | > 100 µM | > 100 µM | > 100 µM |  |  |  |  |  |  |  |  | 
8 | N=C(N)c1ccc(N=Nc2c(O)ccc3c2[nH]c2ccccc23)cc1 | > 100 µM | > 80.8 µM | > 100 µM | > 100 µM | > 90.9 µM | > 100 µM | 37.5 µM |  |  | 5.07 µM |  |  |  |  |  |  |  |  | 
9 | COC(=O)C1=C(C(=O)OC)SC2(S1)C1=C(CCCC1)SC(C(=O)OC)=C2C(=O)OC | 23.4 µM | 24.3 µM | 19.4 µM | 18.3 µM | 10.9 µM | 20.6 µM | 2.92 µM | 8.16 µM | 17.3 µM | 17.7 µM |  |  |  |  |  |  |  |  | 
10 | C[C@]12CCc3nc(Nc4ccccc4)sc3C1=CC[C@@H]1[C@@H]2CC[C@]2(C)/C(=N/NC(N)=S)CC[C@@H]12 | > 100 µM | > 100 µM | > 100 µM | > 100 µM | > 100 µM | > 100 µM |  | > 100 µM | > 100 µM | 6.61 µM | 5.9 µM | 3 µM | 1.39 µM | 5.59 µM | 3.71 µM | 3.89 µM | 1.98 µM | 1.61 µM | 3.32 µM
11 | CCOC(=O)/C1=C(\C)N(c2ccc(C)cc2)C(=O)c2ccccc2C(=O)c2c(OC(C)=O)ccc(OC(C)=O)c21 | > 100 µM | 72.6 µM | > 100 µM | > 100 µM | > 100 µM | 36.6 µM | 35.9 µM | 26.2 µM | > 100 µM | 30.3 µM |  |  |  |  |  |  |  |  | 
12 | COc1cc(Nc2c3ccccc3nc3ccccc23)ccc1NS(C)(=O)=O | 28.6 µM | 21.7 µM | 19.6 µM |  | 16.9 µM | 36.3 µM | > 100 µM | > 100 µM | 17.2 µM | > 100 µM |  |  |  |  |  |  |  |  | 
13 | Cc1ccc(S(=O)(=O)OCC(=O)O)cc1 | > 100 µM | > 100 µM | > 100 µM | > 100 µM | > 100 µM | > 100 µM | > 100 µM | > 100 µM | > 100 µM | > 100 µM |  |  |  |  |  |  |  |  | 
14 | NC1=NS(=O)(=O)Nc2nc(-c3ccc([N+](=O)[O-])cc3)[nH]c21 | > 100 µM | > 100 µM |  | > 100 µM | > 100 µM | > 100 µM | > 100 µM | > 100 µM | > 100 µM | > 100 µM |  |  |  |  |  |  |  |  | 
